Test results from PubChem BioAssay AID248 (DTP/NCI, 2004).
Values joined by “and” are separate entries in the source; they are usually repeats but may differ in a detail not shown here. Equal entries are not always repeated. Toxic doses and inconclusive results are not listed. Rule as the data show it: active = T/C of 150% or more; inactive = T/C below 125%.

Test system: L1210 leukemia ip in BDF1 mice, survival T/C
Experiment: NCI In Vivo Anticancer Drug Screen. Data for tumor model L1210 Leukemia (intraperitoneal) in B6D2F1 (BDF1) mice
Settings: higher = longer survival
How it was run: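 In this screen, tumor-bearing mice given compound are compared to those given vehicle, and their survival values are reported as a treated-to-control quotient.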

[1] = endpoint: mean survival time, dose: 100.0 mg/kg/injection, schedule: Q04DX003 (ip), vehicle: saline with Tween-80
[2] = endpoint: mean survival time, dose: 200.0 mg/kg/injection, schedule: Q04DX003 (ip), vehicle: saline with Tween-80
[3] = endpoint: mean survival time, dose: 400.0 mg/kg/injection, schedule: Q04DX003 (ip), vehicle: saline with Tween-80

Measured: T/C

CN(C)CCN(C)/N=N/c1nc[nH]c1C(N)=O
inactive: endpoint: mean survival time, dose: 100.0 mg/kg/injection, schedule: Q01DX001 (ip), vehicle: saline with Tween-80 101 % of control | endpoint: mean survival time, dose: 100.0 mg/kg/injection, schedule: Q01DX009 (ip), vehicle: saline with Tween-80 108 % of control | [1] 108 % of control | endpoint: mean survival time, dose: 200.0 mg/kg/injection, schedule: Q01DX001 (ip), vehicle: saline with Tween-80 95 % of control | endpoint: mean survival time, dose: 200.0 mg/kg/injection, schedule: Q01DX009 (ip), vehicle: saline with Tween-80 100 % of control | [2] 113 % of control | endpoint: mean survival time, dose: 400.0 mg/kg/injection, schedule: Q01DX001 (ip), vehicle: saline with Tween-80 110 % of control | endpoint: mean survival time, dose: 400.0 mg/kg/injection, schedule: Q01DX009 (ip), vehicle: saline with Tween-80 95 % of control | [3] 106 % of control

CC(=O)c1cc2ccccc2oc1=O
inactive: endpoint: mean survival time, dose: 100.0 mg/kg/injection, schedule: Q01DX009 (ip), vehicle: gum acacia 117 % of control | endpoint: mean survival time, dose: 200.0 mg/kg/injection, schedule: Q01DX009 (ip), vehicle: gum acacia 108 % of control | endpoint: mean survival time, dose: 400.0 mg/kg/injection, schedule: Q01DX009 (ip), vehicle: gum acacia 107 % of control

COc1cc(C(=O)N2CCN(c3ccccc3)CC2)c2ccccc2n1
inactive: endpoint: mean survival time, dose: 100.0 mg/kg/injection, schedule: Q01DX001 (ip), vehicle: other 98 % of control | endpoint: mean survival time, dose: 200.0 mg/kg/injection, schedule: Q01DX001 (ip), vehicle: other 112 % of control | endpoint: mean survival time, dose: 400.0 mg/kg/injection, schedule: Q01DX001 (ip), vehicle: other 101 % of control

O=C(NCCCl)NC1CCc2ccccc2C1 (configuration not stated)
inactive: endpoint: mean survival time, dose: 100.0 mg/kg/injection, schedule: Q04DX003 (ip), vehicle: Klucel (hydroxypropylcellulose) (HPC) 93 % of control | endpoint: mean survival time, dose: 200.0 mg/kg/injection, schedule: Q04DX003 (ip), vehicle: Klucel (hydroxypropylcellulose) (HPC) 88 % of control | endpoint: mean survival time, dose: 400.0 mg/kg/injection, schedule: Q04DX003 (ip), vehicle: Klucel (hydroxypropylcellulose) (HPC) 89 % of control

O=c1[nH]c2ccccc2n1C1CCN(CCCS(=O)(=O)c2ccccc2)CC1
inactive: endpoint: mean survival time, dose: 200.0 mg/kg/injection, schedule: Q04DX003 (ip), vehicle: gum acacia 91 % of control | endpoint: mean survival time, dose: 400.0 mg/kg/injection, schedule: Q04DX003 (ip), vehicle: gum acacia 87 % of control

CCOC(=O)c1ccc(OC2CCCCO2)c(OC2CCCCO2)c1 (configuration not stated)
inactive: [1] 98 % of control | [2] 98 % of control | [3] 98 % of control

O=C(N[C@H](CO)[C@H](O)c1ccc([N+](=O)[O-])cc1)C(Cl)Cl
inactive: endpoint: mean survival time, dose: 316.0 mg/kg/injection, schedule: Q01DX001 (ip), vehicle: carboxymethylcellulose (CMC) 106 % of control | endpoint: mean survival time, dose: 475.0 mg/kg/injection, schedule: Q01DX001 (ip), vehicle: carboxymethylcellulose (CMC) 115 % of control | endpoint: mean survival time, dose: 720.0 mg/kg/injection, schedule: Q01DX001 (ip), vehicle: carboxymethylcellulose (CMC) 113 % of control | endpoint: median survival time, dose: 274.4 mg/kg/injection, schedule: Q01DX001 (ip), vehicle: saline 105 % of control | endpoint: median survival time, dose: 392.0 mg/kg/injection, schedule: Q01DX001 (ip), vehicle: saline 100 % of control and 101 % of control | endpoint: median survival time, dose: 560.0 mg/kg/injection, schedule: Q01DX001 (ip), vehicle: saline 93 % of control and 94 % of control and 95 % of control | endpoint: median survival time, dose: 560.0 mg/kg/injection, schedule: Q03DX001 (ip), vehicle: saline 88 % of control | endpoint: median survival time, dose: 800.0 mg/kg/injection, schedule: Q01DX001 (ip), vehicle: saline 99 % of control and 100 % of control and 102 % of control | endpoint: median survival time, dose: 800.0 mg/kg/injection, schedule: Q03DX001 (ip), vehicle: saline 100 % of control
